{"source": "patent US20230285557A1", "about": "“MULTI-PARALLEL ANALYSIS OF T-CELL THERAPIES” (The Board of Trustees of the Leland Stanford Junior …, priority 2020, published 2023)", "key": {"[1]": {"system": "T memory stem cells", "conditions": "previously reported; by altering acetyl-Coenzyme A levels; cited from earlier work"}, "[2]": {"system": "PMEL CD8^+ T cells", "assay": "CyTOF phenotyping of ex vivo expanded PMEL T cells stimulated with or without 2HC", "assay_type": "cell-based, murine", "conditions": "5 mM 2HC during ex vivo expansion, vs untreated cells (effector and exhausted phenotype)", "source_text": "This Example describes experiments performed to apply the CyTOF technology to a comprehensively capture the phenotypic space of T cells. As described below, an in-depth understanding of the phenotype of differentially activated tumor-specific T cells can be achieved by using a CyTOF technique. […] Also used in these experiments was a palladium-based mass tag cell barcoding technique that enabled simultaneous analysis and pooling of 20 samples at a time, which allowed efficient multiplexing and reducing batch effects.\nGenerally, cells were suspended in supplemented media: complete RPMI 1640 media (with glutamine) with 1× non-essential amino acids, 1 mM sodium pyruvate, 0.4× vitamin solution, 92 µM 2-mercaptoethanol, 10 µM ciprofloxacin, 10% fetal bovine serum (FBS), and 50 IU/ml IL-2. At Day 0, splenocytes were used at a concentration of 2×10^6/ml, 100 µL /well in 96 well plate u-bottom. The cultures were started with 100×10^6 cells per condition, in 50 mL T cell media containing 60 IU/mL IL-2, 10 µg/mL GP100, and 5 mM 2HC (85 mg). At Day 3, the cell culture was fed with 50 µL media containing 120 IU/mL IL-2 and 5 mM 2HC. At Day 4, the cell culture was fed with 80 µL media containing 120 IU/mL IL-2 and 5 mM 2HC. […]\nOn Day 9, cells were counted and harvested into FACS tubes for CyTOF analysis using a panel of CYTOF biomarkers (see, e.g., FIG. 1 and Table 1). […]"}}, "data": [{"smiles": "O=C([O-])CC(O)(C(=O)[O-])C(O)C(=O)[O-].[K+].[K+].[K+]", "note": "(centres unmarked) [2HC, tripotassium 2-hydroxycitrate]", "values": [{"measurement": "generation of T memory stem cells", "setting": "[1]", "result": "increases the generation of T memory stem cells"}, {"measurement": "shift of T cell phenotype on incubation with inhibitor of acetyl-CoA production", "setting": "[2]", "result": "drastically shifted T cells towards a more memory like phenotype"}]}]}
